Measurements as given in article PMC3189208 (PLoS ONE, 2011).
Where two headings read alike, the source gives them in different places.

Columns and labels:
MOR = conditions: cited from earlier work
parental HEK293 cells = format: cell-based, human
[1] = tested on: MOR G-protein signaling in HEK-MOR cells; format: cell-based, human
[2] = tested on: MOR kinase pathways in HEK-MOR cells; format: cell-based, human

In the case of nociceptin 1-13: ORL1 agonist, the Ki (MOR) is listed as 270 nM.
In the case of `C=CC[N+]1(C)CC[C@]23c4c5ccc(O)c4O[C@H]2C(=O)CC[C@@]3(O)[C@H]1C5` (stereo partly drawn) [naloxone methionone], the Ki (MOR) is listed as 28.9 nM.
In the case of `O=C1/C(=C/c2ccccc2)C[C@@]2(O)[C@H]3Cc4ccc(O)c5c4[C@@]2(CCN3CC2CC2)[C@H]1O5` [BNTX], the Ki (MOR) is listed as 18 nM and the “DMR produced by ligand in parental HEK293 cells” value (parental HEK293 cells) is listed as “negative DMR”.
In the case of `O=C(Cc1ccc(Cl)c(Cl)c1)N1CCCCC1CN1CCCC1` (stereo not drawn) [BRL-52537], the “ligand-induced DMR in cholera toxin (CTx)-pretreated cells vs untreated” value [1] is listed as “reduce”, the “maximal DMR response after SB202190 pretreatment vs untreated” value [2] is listed as “significantly reduced” and the Ki (MOR) is listed as 1560 nM.
For `Oc1ccc2c3c1O[C@H]1c4c(c5ccccc5n4Cc4ccccc4)C[C@@]4(O)[C@@H](C2)N(CC2CC2)CC[C@]314` [N-benzylnaltrindole], the IC50 (MOR) is given as 11.2 nM.
In the case of `CN(C(=O)Cc1ccc(Cl)c(Cl)c1)[C@H](CN1CCCC1)c1ccccc1` [ICI 199,441], the “DMR produced by ligand in parental HEK293 cells” value (parental HEK293 cells; ligand 10 µM) is reported as “small N-DMR”.
In the case of morphiceptin, the IC50 (MOR) is listed as 19.8 nM.
In the case of dynorphin B, the Ki (MOR) is given as 13 nM.
In the case of DSLET, the “maximal DMR response after SB202190 pretreatment vs untreated” value [2] is given as “significantly reduced” and the Kd (MOR) is given as 120 nM.
In the case of `C=CCN1CCC2(C)c3cc(O)ccc3CC1C2C` (stereo not drawn) [SKF10047], the Ki (MOR) is given as 1900 nM.
For `COC(=O)/C=C/C(=O)N[C@@H]1CC[C@@]2(O)[C@H]3Cc4ccc(O)c5c4[C@@]2(CCN3CC2CC2)[C@H]1O5` [β-funaltrexamine], the “late DMR response after SP100625 pretreatment vs untreated” value [2] is given as “potentiated”, the “maximal DMR response after SP100625 pretreatment vs untreated” value [2] is given as “enhanced” and the Ki (MOR) is given as 0.33 nM.
For `CN(C(=O)Cc1ccc(Cl)c(Cl)c1)[C@H](CN1CCCC1)c1cccc(N=C=S)c1` [DIPPA, 2-(3,4-Dichlorophenyl)-N-methyl-N-[(1S)-1-(3-isothiocyanatophenyl)-2-(1-pyrrolidinyl)ethyl]acetamide], the “late DMR response after U0126 pretreatment vs untreated” value [2] was “significantly suppressed”, the “maximal DMR response after SB202190 pretreatment vs untreated” value [2] was “significantly reduced” and the “maximal DMR response after U0126 pretreatment vs untreated” value [2] was “sensitive”. For the same compound, the IC50 (MOR) was 1800 nM.
For `COc1ccc2c3c1O[C@H]1[C@@H](O)C=C[C@H]4[C@@H](C2)NCC[C@@]341` [(-)-norcodeine], the Ki (MOR) is listed as 267 nM.
In the case of `NC(=O)[C@H](Cc1ccccc1)NC(=O)[C@H](Cc1ccccc1)NC(=O)[C@@H]1CCCN1C(=O)[C@@H](N)Cc1ccc(O)cc1` [endomorphin-2], the “ligand-induced DMR in cholera toxin (CTx)-pretreated cells vs untreated” value [1] is listed as “reduce” and the Ki (MOR) is listed as 0.43 nM.
In the case of (met^5)-enkephalin, the Ki (MOR) is given as 3 nM.
With `COc1cccc(C2(O)CCCCC2CN(C)C)c1` (stereo not drawn) [tramadol] the “maximal DMR response after SB202190 pretreatment vs untreated” value [2] was “significantly reduced” and the “maximal DMR response after U0126 pretreatment vs untreated” value [2] was “sensitive”.
For (D-Ala^2, D-Leu^5) enkephalin, the Kd (MOR) is given as 150 nM.
For DPDPE, the Kd (MOR) is given as 600 nM.
For deltorphin II, the Kd (MOR) is given as 3.3 nM.
For dynorphin A 1-8, the Ki (MOR) is listed as 22.3 nM.
In the case of `C=CCN1CC[C@]23CCCC[C@H]2[C@H]1Cc1ccc(O)cc13` [levallorphan], the Ki (MOR) is given as 1.7 nM.
For `C[C@@H](NC(=O)[C@@H](N)Cc1ccc(O)cc1)C(=O)NCC(=O)N(C)[C@@H](Cc1ccccc1)C(=O)NCCO` [DAMGO], the “ligand-induced DMR in pertussis toxin (PTx)-pretreated cells” value [1] was “small P-DMR” and the “maximal DMR response after SB202190 pretreatment vs untreated” value [2] was “not completely blunted”.
In the case of dynorphin A 1-13, the “maximal DMR response after SB202190 pretreatment vs untreated” value [2] is given as “significantly reduced”, the “maximal DMR response after SP100625 pretreatment vs untreated” value [2] is given as “enhanced” and the Kd (MOR) is given as 31 nM.
In the case of `Oc1ccc2c3c1O[C@H]1c4oc5ccccc5c4C[C@@]4(O)[C@@H](C2)N(CC2CC2)CC[C@]314` [Naltriben], the Ki (MOR) is listed as 80.8 nM.
